The text below walks through data of patent US9328118B2, “Nitrogen-containing bicyclic aromatic heterocyclic compound” (ASTELLAS PHARMA INC., priority 2012, dated 2016).

human cathepsin S, sequence (P25774 115-331): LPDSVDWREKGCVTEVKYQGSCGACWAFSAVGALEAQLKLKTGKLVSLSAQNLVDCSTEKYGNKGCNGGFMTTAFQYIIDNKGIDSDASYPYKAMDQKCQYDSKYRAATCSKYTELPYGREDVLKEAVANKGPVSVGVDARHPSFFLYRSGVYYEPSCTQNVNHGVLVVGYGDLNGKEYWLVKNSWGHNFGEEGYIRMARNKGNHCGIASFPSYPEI

The first test has as its target human cathepsin S (Homo sapiens (Human), UniProt P25774). Description: In vitro human cathepsin S inhibitory activity (VVR-AMC fluorescence). Type of test: biochemical. Particulars: human cathepsin S enzyme, substrate VVR-AMC 40 μM, pH 4.5, 37° C.; read-out: IC50 value of the human cathepsin S inhibitory activity (Data 1). On the procedure:
Test Example 1 Measurement of a In Vitro Human Cathepsin S Inhibitory Activity
5 μL of a human cathepsin S enzyme (R&D1183-CY-010) was added to a 96-well plate so as to be 20 ng/well. […] A reaction rate at the time of not adding an enzyme in which the test compound was not added and a reaction rate at the time of adding an enzyme in which the test compound was not added were set to 100% inhibition and 0% inhibition, respectively, then, an inhibition rate at each concentration was determined, and IC50 values were calculated by a linear regression method. In the Table, Ex represents Example compound No., and Data 1 represents an IC50 value (nM) of the human cathepsin S inhibitory activity.
As to `CN(C)C(=O)CN1CCC(CCOc2ccc(-c3nc(C#N)nc4c3ccn4C)cc2C(F)(F)F)CC1` [Example 3, 2-(4-{2-[4-(2-cyano-7-methyl-7H-pyrrolo[2,3-d]pyrimidin-4-yl)-2-(trifluoromethyl)phenoxy]ethyl}piperidin-1-yl)-N,N-dimethylacetamide], the IC50 stood at 2.6 nM.

With `CN1CCC[C@@H]1C(=O)N1CCC(CCOc2ccc(-c3nc(C#N)nc4c3ncn4C)cc2C(F)(F)F)CC1` [Example 6, 9-methyl-6-[4-{2-[1-(1-methyl-D-prolyl)piperidin-4-yl]ethoxy}-3-(trifluoromethyl)phenyl]-9H-purine-2-carbonitrile], the IC50 amounted to 3.4 nM.

The subject of the next test is MHC class II expression in B220 positive B cells of mouse spleen cells. Description: In vitro MHC class II expression inhibitory effect using mouse spleen cells (LPS-stimulated B cells, flow cytometry). Type of test: cell-based, C57BL/6 mice. Particulars: B-cell, C57BL/6 spleen cells, LPS 2 μg/mL, 48 hours, B220 positive B cells, read-out: IC50 value of MHC class II expression inhibition (Data 2). The protocol: Test Example 2 Evaluation of In Vitro MHC Class II Expression Inhibitory Effect Using Mouse Spleen Cells (Cell Evaluation System)
In antigen-presenting cells, the inhibition of cathepsin S inhibits the expression of MHC class II molecules. […] For an increased expression of MI-IC class II in B cells, the inhibitory effect of the compound represented by formula (I) was examined.
First, spleen cells collected from C57BL/6 mice were seeded in a 96-well plate so as to be a 1×10^5 cells/well, then, 5-fold dilution of 10 mM DMSO solution of the test compound was serially performed with RPMI 1640 medium (including 10% fetal bovine serum (FCS), 5×10^−5 M 2-mercaptoethanol, 50 IU/mL penicillin and 50 μg/mL streptomycin) nine times such that the final concentration becomes 0.026 nM to 10 μM, and the resultant products were added thereto (the final DMSO concentration was 0.1%). At the same time, LPS (Sigma L4005) was added to the wells such that the final concentration becomes 2 μg/mL, and culture was performed at 37° C. for 48 hours in 5% CO2. After culturing, the cells were stained at 4° C. for 20 minutes with PE-labeled streptavidin (BD BIOSCIENCE 554061) and biotin-labeled YAe antibody (EBIOSCIENCE 13-5741-85) together with FITC-labeled anti-mouse B220 antibody (BD BIOSCIENCE 553088), and an expression level (fluorescence intensity of YAe-biotin/streptavidin-PE) of MHC class II to which Ea peptide in B220 positive B cells was bonded was measured using a flow cytometry system (Guava EasyCyte Plus System, manufactured by Millipore Corporation). A value at the time of unstimulation of LPS in which the test compound was not added and a value at the time of stimulation of LPS in which the test compound was not added were set to 100% inhibition and 0% inhibition, respectively, then, an inhibition rate at each concentration was determined, and IC50 values were calculated by a linear regression method. In the Table, Ex represents Example compound No., and Data 2 represents an IC50 value (nM).
For the molecule `CN(C)C(=O)CN1CCC(CCOc2ccc(-c3nc(C#N)nc4c3ccn4C)cc2C(F)(F)F)CC1` [Example 3, 2-(4-{2-[4-(2-cyano-7-methyl-7H-pyrrolo[2,3-d]pyrimidin-4-yl)-2-(trifluoromethyl)phenoxy]ethyl}piperidin-1-yl)-N,N-dimethylacetamide], the IC50 was 1 nM.

`CN1CCC[C@@H]1C(=O)N1CCC(CCOc2ccc(-c3nc(C#N)nc4c3ncn4C)cc2C(F)(F)F)CC1` [Example 6, 9-methyl-6-[4-{2-[1-(1-methyl-D-prolyl)piperidin-4-yl]ethoxy}-3-(trifluoromethyl)phenyl]-9H-purine-2-carbonitrile]: the IC50 amounted to 0.69 nM.

As for `CN1CCC[C@H]1C(=O)N1CCC(CCOc2ncc(-c3nc(C#N)nc4c3ccn4C)cc2C(F)(F)F)CC1` [Example 41], the IC50 amounted to 1.1 nM.

Take `CCN1CCC(CCOc2ncc(-c3nc(C#N)nc4c3ccn4CC3CCOC3)cc2C(F)(F)F)CC1` (stereo not shown) [Example 52]: the IC50 came to 1.8 nM.

For `CCN1CCC(CCOc2ccc(-c3nc(C#N)nc4c3ccn4CC3CCOC3)cc2C(F)(F)F)CC1` (stereo not shown) [Example 54], the IC50 turned out to be 0.94 nM.

`N#Cc1nc(-c2ccc(OCCC3CCNCC3)c(C(F)(F)F)c2)c2ccn(CC3CCCO3)c2n1` (stereo not shown) [Example 58]: the IC50 turned out to be 2 nM.

`CN(C)C(=O)CN1CCC(CCOc2ccc(-c3nc(C#N)nc4c3ccn4CC3CCOC3)cc2C(F)(F)F)CC1` (stereo not shown) [Example 66]: the concentration for half-maximal inhibition (IC50) worked out at 2.1 nM.

For the molecule `CCN1CCC(CCOc2ccc(-c3nc(C#N)nc4c3ncn4CC3CCOC3)cc2C(F)(F)F)CC1` (stereo not shown) [Example 70], the IC50 came out at 0.76 nM.

With `CCN1CCC(CCOc2ncc(-c3nc(C#N)nc4c3ncn4CC3CCOC3)cc2C(F)(F)F)CC1` (stereo not shown) [Example 71], the IC50 stood at 1.3 nM.

`CN(C)C(=O)CN1CCC(CCOc2ccc(-c3nc(C#N)nc4c3ncn4C)cc2C(F)(F)F)CC1` [Example 72]: the IC50 came out at 0.73 nM.

On to `CN1CCC[C@H]1C(=O)N1CCC(CCOc2ncc(-c3nc(C#N)nc4c3ncn4CC3CCOC3)cc2C(F)(F)F)CC1` (stereo partly shown) [Example 79], for which the IC50 came out at 2.5 nM.

For `CCN1CCC(CCOc2ccc(-c3nc(C#N)nc4c3ccn4CC3CCCO3)cc2C(F)(F)F)CC1` (stereo not shown) [Example 88], the IC50 is 2.3 nM.

On to `CN1CCC[C@H]1C(=O)N1CCC(COc2ccc(-c3nc(C#N)nc4c3ccn4CC3CCOC3)cc2C(F)(F)F)CC1` (stereo partly shown) [Example 105], for which the IC50 is 0.91 nM.

Regarding `CCN1CCC(COc2ccc(-c3nc(C#N)nc4c3ccn4CC3CCOC3)cc2C(F)(F)F)CC1` (stereo not shown) [Example 106], the IC50 came out at 3.2 nM.

For `CCN1CCC(CCOc2ccc(-c3nc(C#N)nc4c3ccn4CCO)cc2C(F)(F)F)CC1` [Example 110], the IC50 came out at 0.91 nM.

For the molecule `Cn1ccc2c(-c3cnc(OCCC4CCNCC4)c(C(F)(F)F)c3)nc(C#N)nc21` [Example 116], the IC50 was found to be 1.8 nM.

Regarding `Cn1cnc2c(-c3ccc(OCCC4CCN(CC(=O)N5CCC(C#N)CC5)CC4)c(C(F)(F)F)c3)nc(C#N)nc21` [Example 120], the IC50 was 1 nM.

For the molecule `Cn1cnc2c(-c3ccc(OCCC4CCN(CC(=O)N5CC[C@H](F)C5)CC4)c(C(F)(F)F)c3)nc(C#N)nc21` [Example 122], the IC50 was 0.87 nM.

`Cn1ccc2c(-c3cnc(OCC4CCN(C(=O)C5CCN(CC(C)(C)O)CC5)CC4)c(C(F)(F)F)c3)nc(C#N)nc21` [Example 135, 4-{6-[(1-{[1-(2-hydroxy-2-methylpropyl)piperidin-4-yl]carbonyl}piperidin-4-yl)methoxy]-5-(trifluoromethyl)pyridin-3-yl}-7-methyl-7H-pyrrolo[2,3-d]pyrimidine-2-carbonitrile]: the IC50 was determined as 0.89 nM.

Consider `Cn1cnc2c(-c3cnc(OCCC4CCN(C5CCC5)CC4)c(C(F)(F)F)c3)nc(C#N)nc21` [Example 141], for which the IC50 turned out to be 0.65 nM.
